{"source": "paper PMC4025172", "about": "(Breast Cancer Research and Treatment, 2014)", "key": {"nuclear ER": {"system": "nuclear ER", "conditions": "cited from earlier work"}, "BC cells": {"system": "BC cells", "conditions": "depends on concentration and duration of action; cited from earlier work"}, "breast cancer": {"system": "breast cancer", "conditions": "retrospective cohort study in Finland, postmenopausal patients; cited from earlier work"}, "[1]": {"system": "E3 receptor complex / E2 receptor complex", "conditions": "cited from earlier work"}, "[2]": {"conditions": "cited from earlier work"}, "[3]": {"assay_type": "in vivo, human", "conditions": "for AUC(0–24),C2: parameter not reliable; for AUC(0-t) / Cmax / concentration at -0.5 h / Tmax: serum, other: vaginal, 0.03 mg"}, "[4]": {"conditions": "cited from earlier work", "remark": "listed apart in the source"}, "[5]": {"conditions": "after 4 weeks of daily application"}, "[6]": {"conditions": "vaginal ring or tablets with E2, postmenopausal BC patients (no AI therapy)"}}, "note": "Like-named read-outs stand apart in the source and are kept apart here. Marks after values point to notes of the source that are not given here.", "data": [{"smiles": "C[C@]12CC[C@@H]3c4ccc(O)cc4CC[C@H]3[C@@H]1C[C@@H](O)[C@@H]2O", "note": "[E3, estriol]", "values": [{"measurement": "affinity to the nuclear ER as compared to E2", "setting": "nuclear ER", "value": 10, "unit": "times lower"}, {"measurement": "effect on BC cells in vitro", "setting": "BC cells", "value": "can stimulate"}, {"measurement": "association with risk of BC", "setting": "breast cancer", "value": "neither the use of vaginal E2 and E3 preparations nor oral E3 were associated with a risk of BC"}, {"measurement": "nuclear retention time of the receptor complex", "setting": "[1]", "value": "< 6", "unit": "h"}, {"measurement": "metabolism into E1 or E2", "setting": "[2]; E3 is an end product of estrogen metabolism", "value": "cannot be transformed back"}, {"measurement": "metabolic clearance", "setting": "[2]", "value": "rapid"}, {"measurement": "vaginal absorption as the vaginal epithelium matures", "setting": "[2]; within a few days to weeks after start of vaginal treatment", "value": "decreases"}, {"measurement": "t max,C2", "setting": "[3]; Visit C2 (day 28), maximum", "value": 8.0, "unit": "h"}, {"measurement": "AUC(0–24),C2", "setting": "[3]; Visit C2 (day 28), maximum", "value": 0.457, "unit": "ng·h/mL"}, {"measurement": "t max,C2", "setting": "[3]; Visit C2 (day 28), minimum", "value": 4.0, "unit": "h"}, {"measurement": "C max,C2", "setting": "[3]; Visit C2 (day 28), minimum, LLOQ E3 10.00 pg/ml", "value": "<LLOQ"}, {"measurement": "AUC(0–24),C2", "setting": "[3]; Visit C2 (day 28), minimum", "value": "<LLOQ"}, {"measurement": "C max,E", "setting": "[3]; Visit E (day 0), first application, maximum", "value": 0.168, "unit": "ng/mL"}, {"measurement": "AUC(0–24),E", "setting": "[3]; Visit E (day 0), maximum", "value": 0.378, "unit": "ng·h/mL"}, {"measurement": "t max,E", "setting": "[3]; Visit E (day 0), maximum", "value": 3.1, "unit": "h"}, {"measurement": "AUC(0–24),E", "setting": "[3]; Visit E (day 0), minimum", "value": "<LLOQ"}, {"measurement": "t max,E", "setting": "[3]; Visit E (day 0), minimum", "value": 2.0, "unit": "h"}, {"measurement": "C max,E", "setting": "[3]; Visit E (day 0), minimum, LLOQ E3 10.00 pg/ml", "value": "<LLOQ"}, {"measurement": "women with slightly increased serum E3", "setting": "[3]; after 4 weeks", "value": 8, "unit": "women"}, {"measurement": "patients without detectable increase of E3", "setting": "[3]; [5]", "value": 50, "unit": "%"}, {"measurement": "women whose highest detected E3 level was below 20 pg/ml", "setting": "[3]; [5]", "value": 25, "unit": "%"}, {"measurement": "women with transient increase in serum E3", "setting": "[3]; after the first application (visit E, day 0)", "value": "15 of 16"}, {"measurement": "trough serum E3 levels", "setting": "[3]; all visits, all except two subjects, LLOQ 10.00 pg/ml", "value": "below LLOQ"}, {"measurement": "AUC(0-t)", "setting": "[3]; female, human, AUC(0–24),C2, Visit C2 (day 28), mean, n=15, not reliable due to late metabolism and insufficient testing points", "value": 0.131, "unit": "ng·h/mL"}, {"measurement": "AUC(0-t)", "setting": "[3]; female, human, AUC(0–24),E, Visit E (day 0), GeoMean", "value": 0.154, "unit": "ng·h/mL"}, {"measurement": "AUC(0-t)", "setting": "[3]; female, human, AUC(0–24),E, Visit E (day 0), mean, n=16", "value": 0.212, "unit": "ng·h/mL"}, {"measurement": "AUC(0-t)", "setting": "[3]; female, human, AUC(0–24),E, Visit E (day 0), median", "value": 0.241, "unit": "ng·h/mL"}, {"measurement": "Cmax", "setting": "[3]; female, human, C max,C2, Visit C2 (day 28), GeoMean", "value": 0.011, "unit": "ng/mL"}, {"measurement": "Cmax", "setting": "[3]; female, human, C max,C2, Visit C2 (day 28), mean, n=16", "value": 0.0158, "unit": "ng/mL"}, {"measurement": "Cmax", "setting": "[3]; female, human, C max,C2, Visit C2 (day 28), median", "value": 0.0091, "unit": "ng/mL"}, {"measurement": "Cmax", "setting": "[3]; female, human, C max,E, Visit E (day 0), GeoMean", "value": 0.0882, "unit": "ng/mL"}, {"measurement": "Cmax", "setting": "[3]; female, human, C max,E, Visit E (day 0), mean, n=16", "value": 0.104, "unit": "ng/mL"}, {"measurement": "Cmax", "setting": "[3]; female, human, C max,E, Visit E (day 0), median", "value": 0.11, "unit": "ng/mL"}, {"measurement": "concentration at -0.5 h", "setting": "[3]; female, human, E3 baseline and trough, maximum, visit C1 (week 2)", "value": 0.0492, "unit": "ng/mL"}, {"measurement": "concentration at -0.5 h", "setting": "[3]; female, human, E3 baseline and trough, maximum, visit C2 (week 4)", "value": 0.0145, "unit": "ng/mL"}, {"measurement": "concentration at -0.5 h", "setting": "[3]; female, human, serum estriol (E3) concentration, Visit C2 (day 28), maximum, −0.5 h (pre-dose)", "value": 0.0145, "unit": "ng/mL"}, {"measurement": "concentration at -0.5 h", "setting": "[3]; female, human, serum estriol (E3) concentration, Visit C2 (day 28), mean, −0.5 h (pre-dose)", "value": 0.00091, "unit": "ng/mL"}, {"measurement": "concentration at -0.5 h", "setting": "[3]; female, human, serum estriol (E3) concentration, Visit C2 (day 28), median, −0.5 h (pre-dose)", "value": 0, "unit": "ng/mL"}, {"measurement": "concentration at -0.5 h", "setting": "[3]; female, human, serum estriol (E3) concentration, Visit C2 (day 28), minimum, −0.5 h (pre-dose)", "value": 0, "unit": "ng/mL"}, {"measurement": "concentration at -0.5 h", "setting": "[3]; female, human, serum estriol (E3) concentration, Visit E (day 0), maximum, −0.5 h (pre-dose)", "value": 0, "unit": "ng/mL"}, {"measurement": "concentration at -0.5 h", "setting": "[3]; female, human, serum estriol (E3) concentration, Visit E (day 0), mean, −0.5 h (pre-dose)", "value": 0, "unit": "ng/mL"}, {"measurement": "concentration at -0.5 h", "setting": "[3]; female, human, serum estriol (E3) concentration, Visit E (day 0), median, −0.5 h (pre-dose)", "value": 0, "unit": "ng/mL"}, {"measurement": "concentration at -0.5 h", "setting": "[3]; female, human, serum estriol (E3) concentration, Visit E (day 0), minimum, −0.5 h (pre-dose)", "value": 0, "unit": "ng/mL"}, {"measurement": "Tmax", "setting": "[3]; female, human, t max,C2, Visit C2 (day 28), mean, n=8", "value": 7.2, "unit": "h"}, {"measurement": "Tmax", "setting": "[3]; female, human, t max,C2, Visit C2 (day 28), median", "value": 7.9, "unit": "h"}, {"measurement": "Tmax", "setting": "[3]; female, human, t max,E, Visit E (day 0), mean, n=15", "value": 2.5, "unit": "h"}, {"measurement": "Tmax", "setting": "[3]; female, human, t max,E, Visit E (day 0), median", "value": 2.2, "unit": "h"}, {"measurement": "exposure (AUC0–24) at end of initial therapy compared with study entry", "setting": "[3]; human, in vivo", "value": "significantly lower"}, {"measurement": "concentration at -0.5 h", "setting": "[3]; human, trough E3 serum concentration, one subject, visit C1", "value": 0.0223, "unit": "ng/mL"}, {"measurement": "E3 baseline and trough", "setting": "[3]; maximum, visit C1 (week 2)", "value": 49.20, "unit": "pg/mL"}, {"measurement": "E3 baseline and trough", "setting": "[3]; maximum, visit C2 (week 4)", "value": 14.50, "unit": "pg/mL"}, {"measurement": "E3 baseline and trough", "setting": "[3]; maximum, visit C3 (week 8)", "value": 0.00, "unit": "pg/mL"}, {"measurement": "E3 baseline and trough", "setting": "[3]; maximum, visit C4 (week 12)", "value": 0.00, "unit": "pg/mL"}, {"measurement": "E3 baseline and trough", "setting": "[3]; maximum, visit E (day 0, baseline)", "value": 0.00, "unit": "pg/mL"}, {"measurement": "E3 baseline and trough", "setting": "[3]; mean (SD), visit C1 (week 2), n=14", "value": "5.11 (14.01)^a pg/ml"}, {"measurement": "E3 baseline and trough", "setting": "[3]; mean (SD), visit C2 (week 4)", "value": "0.91(3.63) pg/ml"}, {"measurement": "E3 baseline and trough", "setting": "[3]; mean (SD), visit C3 (week 8)", "value": 0.00, "unit": "pg/mL"}, {"measurement": "E3 baseline and trough", "setting": "[3]; mean (SD), visit C4 (week 12)", "value": 0.00, "unit": "pg/mL"}, {"measurement": "E3 baseline and trough", "setting": "[3]; mean (SD), visit E (day 0, baseline)", "value": 0.00, "unit": "pg/mL"}, {"measurement": "E3 baseline and trough", "setting": "[3]; minimum, visit C1 (week 2)", "value": 0.00, "unit": "pg/mL"}, {"measurement": "E3 baseline and trough", "setting": "[3]; minimum, visit C2 (week 4)", "value": 0.00, "unit": "pg/mL"}, {"measurement": "E3 baseline and trough", "setting": "[3]; minimum, visit C3 (week 8)", "value": 0.00, "unit": "pg/mL"}, {"measurement": "E3 baseline and trough", "setting": "[3]; minimum, visit C4 (week 12)", "value": 0.00, "unit": "pg/mL"}, {"measurement": "E3 baseline and trough", "setting": "[3]; minimum, visit E (day 0, baseline)", "value": 0.00, "unit": "pg/mL"}, {"measurement": "C max at visit C2 compared to visit E", "setting": "[3]; p < 0.0001", "value": "significantly lower"}, {"measurement": "subjects without any quantifiable concentration of E3", "setting": "[3]; visit C2 (day 28)", "value": "half"}, {"measurement": "time of serum E3 increase post-insertion", "setting": "[3]; visit C2 (day 28)", "value": "6 to 8", "unit": "h"}, {"measurement": "time of C max post-insertion", "setting": "[3]; visit E (day 0), first application", "value": "2 to 3", "unit": "h"}, {"measurement": "serum E2 or E3", "setting": "[4]; vaginal 0.25 mg E3 twice weekly, 12 weeks, no PK values determined", "value": "no increase"}, {"measurement": "serum levels of E3", "setting": "[4]; vaginal application of conventional 0.50 mg dose of E3, ref [8]–[39]", "value": "increased"}]}, {"smiles": "C[C@]12CC[C@@H]3c4ccc(O)cc4CC[C@H]3[C@@H]1CC[C@@H]2O", "note": "[E2, estradiol]", "values": [{"measurement": "effect on BC cells in vitro", "setting": "BC cells", "value": "can stimulate"}, {"measurement": "nuclear retention time of the receptor complex", "setting": "[1]", "value": "> 12", "unit": "h"}, {"measurement": "serum levels of E2", "setting": "[4]; vaginal administration of any dose of E2 in AI users, ref [3]–[14], [15]–[18]", "value": "increases"}, {"measurement": "effect on vaginal atrophy", "setting": "[4]; [6]", "value": "efficiently relieved vaginal atrophy"}, {"measurement": "serum levels of E2 and E1", "setting": "[4]; [6]", "value": "temporarily raised"}]}]}
